Test systems include SW-620 colon; M14 melanoma; HL-60(TB) leukemia; HT29 colon; DU-145 prostate; OVCAR-5 ovarian; RPMI-8226 leukemia; ACHN renal; A549 NSCLC; SF-268 CNS.
Common to all, as to experiment: NCI tumour cell line growth inhibition, 48 h

Several values for one entry are separate records, joined by “and”; a condition that tells them apart may be missing. Equal values may be shown once.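 Grown in 96-well plates, cells were treated for 48 hours with each compound at five concentrations. Insufficient inhibition: endpoint recorded as highest concentration tested. Abbreviation: GI50, concentration required for 50% inhibition of growth. TGI: total growth inhibition.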

Regarding `CN(C)CC(=O)Nc1ccc2ncnc(Nc3ccc(Oc4cccc(C(F)(F)F)c4)c(Cl)c3)c2c1`, the GI50 is 1.66 µM in the test with SW-620 colon; 1.46 µM with M14 melanoma; 2.09 µM in the test with HL-60(TB) leukemia; 1.72 µM in the test on HT29 colon; 2.13 µM in the test on DU-145 prostate; 3.04 µM with OVCAR-5 ovarian. Moreover, the GI50 is 1.9 µM in the test on RPMI-8226 leukemia, 1.13 µM in the test with ACHN renal, 2.82 µM in the test on A549 NSCLC and 1.97 µM in the test on SF-268 CNS. Moreover, the TGI in the test on SW-620 colon came out at 3.3 µM; in the test on M14 melanoma, 2.85 µM; in the test with HL-60(TB) leukemia, 4.94 µM; in the test on HT29 colon, 4.08 µM; in the test on DU-145 prostate it was 6.78 µM; in the test with OVCAR-5 ovarian it was 12.9 µM. In addition, the TGI amounted to 5.51 µM with RPMI-8226 leukemia, 2.49 µM with ACHN renal, 10.2 µM with A549 NSCLC and 5.44 µM in the test on SF-268 CNS.
Regarding `O=C(c1ccccc1Cl)n1oc2ccccc2c1=O`, the TGI was more than 100 µM with SW-620 colon; more than 100 µM in the test with M14 melanoma; 51 µM in the test on HL-60(TB) leukemia; more than 100 µM in the test with HT29 colon; more than 100 µM in the test with DU-145 prostate; more than 100 µM in the test on OVCAR-5 ovarian. Besides, the TGI was 68.8 µM in the test with RPMI-8226 leukemia, more than 100 µM in the test on ACHN renal, more than 100 µM with A549 NSCLC and more than 100 µM with SF-268 CNS.
Turning to `CC1=C(C)C(=O)O[C@@H]([C@](C)(O)[C@]2(O)CC[C@@]3(O)[C@@H]4C[C@H](O)[C@]5(O)[C@@H](O)C=CC(=O)[C@]5(C)[C@H]4CC[C@]23C)C1`, the TGI with SW-620 colon is more than 100 µM; in the test on M14 melanoma it was more than 100 µM; in the test on HL-60(TB) leukemia it was 56.8 µM; with HT29 colon, more than 100 µM; in the test on DU-145 prostate, more than 100 µM; with OVCAR-5 ovarian, more than 100 µM. For the same compound, the TGI with RPMI-8226 leukemia, with ACHN renal, in the test with A549 NSCLC and in the test with SF-268 CNS was more than 100 µM in each case.
`C/C(=N\OCC(O)CNCCSCc1ccccc1)c1ccccc1Cl` (stereo not drawn): the TGI in the test on SW-620 colon was 40.6 µM; in the test on M14 melanoma, 48 µM; with HL-60(TB) leukemia, 50.1 µM; in the test with HT29 colon, 41.4 µM; in the test on DU-145 prostate, 52.2 µM; in the test on OVCAR-5 ovarian, 37.9 µM. Moreover, the TGI in the test on RPMI-8226 leukemia was found to be 43.4 µM; in the test with ACHN renal it was 37.8 µM; in the test with A549 NSCLC it was 45.6 µM; in the test on SF-268 CNS, 34.6 µM.
As for `COc1ccc(CCN(CC(=O)N(CC(N)=O)C2CCC[C@@H]2OCc2ccccc2)C(=O)CN(C(=O)CN(CCc2ccc(Cl)cc2)C(=O)CN(C(=O)CN(C)Cc2ccccc2F)[C@H](C)C2CCCCC2)[C@H](C)C2CCCCC2)cc1OC` (stereo partly drawn), the GI50 with SW-620 colon is 2.56 µM; in the test on M14 melanoma, 1.13 µM; in the test on HL-60(TB) leukemia, 1.21 µM; in the test on HT29 colon, 1.25 µM; with DU-145 prostate, 2.42 µM; in the test on OVCAR-5 ovarian it was 2.24 µM. Further, the GI50 in the test on RPMI-8226 leukemia was 1.19 µM; in the test on ACHN renal, 2.05 µM; in the test on A549 NSCLC, 1.59 µM; in the test with SF-268 CNS, 1.29 µM. Besides, the TGI was more than 50 µM with SW-620 colon; 4.05 µM with M14 melanoma; 3.24 µM with HL-60(TB) leukemia; 5.75 µM in the test on HT29 colon; more than 50 µM with DU-145 prostate; more than 50 µM in the test on OVCAR-5 ovarian. Moreover, the TGI in the test on RPMI-8226 leukemia is 3.28 µM; with ACHN renal it was more than 50 µM; in the test with A549 NSCLC, more than 50 µM; with SF-268 CNS, more than 50 µM.
As for `CC(C)(C)c1cc(NC(=O)Nc2ccc(-c3cn4c(n3)sc3cc(OCCN5CCOCC5)ccc34)cc2)no1`, the GI50 was 11.4 µM and 2.86 µM and > 10 µM in the test on SW-620 colon; 8.49 µM and 1.28 µM and 6.56 µM in the test on M14 melanoma; 5.61 µM and 0.633 µM and 4.28 µM in the test on HT29 colon; 10.7 µM and 2.28 µM and 9.69 µM with DU-145 prostate; 21.7 µM and 9.53 µM and > 10 µM with OVCAR-5 ovarian; 0.363 µM and 0.16 µM and 0.34 µM in the test on RPMI-8226 leukemia. The GI50 was 3.48 µM and 1.22 µM and 8.06 µM in the test with ACHN renal; 3.93 µM and 1.48 µM and 6.89 µM in the test on A549 NSCLC; 3.17 µM and 2.19 µM and 5.09 µM in the test on SF-268 CNS. Besides, the TGI in the test with SW-620 colon is 27.2 µM and 17.6 µM and > 10 µM; with M14 melanoma, 26.8 µM and 16 µM and > 10 µM; in the test with HL-60(TB) leukemia, > 100 µM and 24.8 µM and > 10 µM; in the test with HT29 colon it was 27 µM and 11.4 µM and > 10 µM; with DU-145 prostate, 22.5 µM and 13.3 µM and > 10 µM; with OVCAR-5 ovarian, 86.9 µM and 22.7 µM and > 10 µM. The TGI with ACHN renal is 18.1 µM and 13.2 µM and > 10 µM; with A549 NSCLC, 19.5 µM and 13.8 µM and > 10 µM; in the test on SF-268 CNS, 14.4 µM and 14.8 µM and > 10 µM.
Consider `Cc1ccc2cccc(OC(=O)Nc3cccc(C(F)(F)F)c3)c2n1`, for which the GI50 is 3.46 µM in the test on SW-620 colon; 4.06 µM in the test on M14 melanoma; 5.41 µM in the test on HL-60(TB) leukemia; 3.45 µM with HT29 colon; 3.95 µM in the test with DU-145 prostate; 6.44 µM in the test on OVCAR-5 ovarian. The GI50 was 2.52 µM in the test with RPMI-8226 leukemia, 3.04 µM in the test on ACHN renal, 3.44 µM with A549 NSCLC and 4.26 µM in the test with SF-268 CNS. Moreover, the TGI with SW-620 colon stood at 13.3 µM; in the test on M14 melanoma, 16.2 µM; in the test with HL-60(TB) leukemia, 38.4 µM; with HT29 colon, 12 µM; with DU-145 prostate, 82.4 µM; in the test on OVCAR-5 ovarian, 32.1 µM. In addition, the TGI in the test with RPMI-8226 leukemia was 7.21 µM; in the test with ACHN renal, 12.4 µM; in the test with A549 NSCLC it was 13.4 µM; in the test with SF-268 CNS, 18.3 µM.

For the origin of these results see PubChem BioAssay (NCI).
